Patent US20250262336A1, “[177LU] LUTETIUM-PSMA I&T COMPOSITION AND DOSIMETRY, KIT, METHOD OF MAKING, AND METHOD OF USING THEREOF” (Curium US LLC, priority 2023, published 2025)

Experiment: Cycle 1 normal organ dosimetry (SPECT/CT, TIACs, OLINDA 2.2.3)
Type: in vivo, human
Conditions: for Absorbed Dose in Cycle 1, Mean / Absorbed Dose in Cycle 1, max / Absorbed Dose in Cycle 1, min: N = 16 patients imaged at cycle 1 and 3; for Absorbed Dose, Mean / Absorbed Dose, max / Absorbed Dose, median / Absorbed Dose, min: Cycle 1, n = 26
Method: This Example presents the biodistribution, dosimetry, and pharmacokinetics (PK) results of a PK/Dosimetry sub-study performed as part of a Phase III trial. Twenty-seven (27) patients were administered a target activity of 7.4±10% GBq of ^177Lu-PSMA-I&T and underwent single photon emission computed tomography (SPECT)/computed tomography (CT) imaging at four timepoints (4 h, 24 h, 48 h, and 168 h). Image data was analysed to compute time-activity curves (TACs) and subsequently time-integrated activity coefficients (TIACs) in each organ of interest and in organs showing appreciable and meaningful ^177Lu-PSMA-I&T activity. Organ Level Internal Dose Assessment (OLINDA 2.2.3) was used to compute organ and whole body absorbed radiation doses for each patient.
All participating sites underwent a rigorous site setup process during which all dose calibrators, scanners, and gamma counters used in the sub-study were calibrated. Sites were allowed to enroll patients in the sub-study only after the completion and approval of all site setup processes by Invicro. Patients underwent SPECT/CT imaging, with anatomical coverage typically extending from the salivary glands to the pelvis, following the administration of a targeted 7.4±10% GBq of ^177Lu-PSMA-I&T at cycle 1. SPECT/CT imaging was performed at four timepoints: 4 h, 24 h, 48 h, and 168 h post-injection. Additionally, a subset of patients imaged at Cycle 1 (16 out of 27), were also imaged at Cycle 3 (Table 2).
In general, raw projection data was acquired into a 128×128 matrix with medium energy general purpose (MEGP) collimation using a step and shoot acquisition mode, acquiring 60 projections per detector (180 degrees rotation per detector), 20 seconds per projection, with an acquisition zoom of 1.0, and a 20% (±10%) energy window centered over 208 keV.
A low-dose CT scan was performed prior to beginning the SPECT scan for attenuation correction. Sites were instructed to use the Institutional standard parameters for acquisition of the low-dose CT. Institutional standard reconstruction parameters were used. Scatter correction was required to be applied using a 20% (±10%) scatter window centered over 170 keV.
The imaging data was analyzed using Invicro's VivoQuant software, a validated software used in a 21 CFR § 11-compliant workflow. The general quantification approach was based on the principles detailed in the Medical Internal Radiation Dose (MIRD) Pamphlet No. 16, No 23, and No 26 as appropriate.
SPECT images were calibrated in units of Becquerel (Bq) using a calibration factor derived from a source of known activity, measured during site set up with the same acquisition and reconstruction parameters employed for patient imaging. A patient-specific calibration factor was also derived at each clinical time point after acquisition of the patient SPECT/CT. As a quality control measure, if the patient-specific calibration factor differed by more than 10% from the site set up calibration factor, an investigation was conducted.
Volume of interest (VOI) (kidneys, bladder, liver, lumbar vertebrae L2-L4, lacrimal glands, salivary glands [parotid and submandibular glands], and whole body) were delineated on each dataset by a trained image analyst. […] Organs were segmented either by drawing the entire contour of the organ, or by placing a sphere in a representative region of the organ and then multiplying by the organ's effective mass (based on patient's height and weight). Segmentation methods for each organ are specified in Table 3 and were consistently applied to each patient.
Clearance of the radiopharmaceutical was derived from a data-appropriate fit of each organ's TAC. Depending on the TAC's shape, the data was fitted with the sum of one, two, or three exponentials, or using a rise and fall model. Fitting was performed with in-house Python software. TIACs were calculated through analytical integration of the curve fit extrapolated to infinity. […]

[1] = cycle 1, target 7.4±10% GBq, mean±SD, patient 42-030 excluded

## O=C(O)CC[C@H](NC(=O)N[C@@H](CCCCNC(=O)CCCCCCC(=O)NCCCC[C@@H](NC(=O)[C@@H](Cc1ccccc1)NC(=O)[C@@H](Cc1ccc(O)c(I)c1)NC(=O)CC[C@H](C(=O)O)N1CCN(CC(=O)O)CCN(CC(=O)O)CCN(CC(=O)O)CC1)C(=O)O)C(=O)O)C(=O)O [^177Lu-PSMA-I&T, (3S,7 S,26R,29R,32R,37R)-29-benzyl-32-(4-hydroxy-3-iodobenzyl)-5,13,20,28,31,34-hexaoxo-37-(4,7,10-tris(carboxymethyl)-1,4,7,10-tetraazacyclododecan-1-yl)-4,6,12,21,27,30,33-heptaazaheptatriacontane-1,3,7,26,37-pentacarboxylic acid; lutetium-177 (III), metal not drawn]
Prostate
  Absorbed Dose in Cycle 1, Mean: 0.02 Gy/GBq
  Absorbed Dose in Cycle 1, max: 0.07 Gy/GBq
  Absorbed Dose in Cycle 1, min: 0.01 Gy/GBq
Rectum
  Absorbed Dose, Mean: 0.44 Gy/GBq
  Absorbed Dose, max: 1.46 Gy/GBq
  Absorbed Dose, median: 0.39 Gy/GBq
  Absorbed Dose, min: 0.01 Gy/GBq
  Absorbed Dose in Cycle 1, Mean: 0.50 Gy/GBq
  Absorbed Dose in Cycle 1, max: 1.46 Gy/GBq
  Absorbed Dose in Cycle 1, min: 0.01 Gy/GBq
Red Marrow
  Absorbed Dose, Mean: 0.08 Gy/GBq
  Absorbed Dose, max: 0.49 Gy/GBq
  Absorbed Dose, median: 0.03 Gy/GBq
  Absorbed Dose, min: 0.00 Gy/GBq
  Absorbed Dose in Cycle 1, Mean: 0.05 Gy/GBq
  Absorbed Dose in Cycle 1, max: 0.28 Gy/GBq
  Absorbed Dose in Cycle 1, min: 0.00 Gy/GBq
Right Colon
  Absorbed Dose, Mean: 0.25 Gy/GBq
  Absorbed Dose, max: 0.82 Gy/GBq
  Absorbed Dose, median: 0.22 Gy/GBq
  Absorbed Dose, min: 0.01 Gy/GBq
  Absorbed Dose in Cycle 1, Mean: 0.28 Gy/GBq
  Absorbed Dose in Cycle 1, max: 0.82 Gy/GBq
  Absorbed Dose in Cycle 1, min: 0.01 Gy/GBq
Salivary Glands
  Absorbed Dose, Mean: 0.19 Gy/GBq
  Absorbed Dose, max: 0.80 Gy/GBq
  Absorbed Dose, median: 0.15 Gy/GBq
  Absorbed Dose, min: 0.03 Gy/GBq
  Absorbed Dose in Cycle 1, Mean: 0.17 Gy/GBq
  Absorbed Dose in Cycle 1, max: 0.80 Gy/GBq
  Absorbed Dose in Cycle 1, min: 0.03 Gy/GBq
Small intestine
  Absorbed Dose, Mean: 0.05 Gy/GBq
  Absorbed Dose, max: 0.15 Gy/GBq
  Absorbed Dose, median: 0.04 Gy/GBq
  Absorbed Dose, min: 0.01 Gy/GBq
  Absorbed Dose in Cycle 1, Mean: 0.06 Gy/GBq
  Absorbed Dose in Cycle 1, max: 0.15 Gy/GBq
  Absorbed Dose in Cycle 1, min: 0.01 Gy/GBq
Spleen
  Absorbed Dose, Mean: 0.03 Gy/GBq
  Absorbed Dose, max: 0.11 Gy/GBq
  Absorbed Dose, median: 0.02 Gy/GBq
  Absorbed Dose, min: 0.01 Gy/GBq
  Absorbed Dose in Cycle 1, Mean: 0.03 Gy/GBq
  Absorbed Dose in Cycle 1, max: 0.11 Gy/GBq
  Absorbed Dose in Cycle 1, min: 0.01 Gy/GBq
Stomach Wall
  Absorbed Dose, Mean: 0.02 Gy/GBq
  Absorbed Dose, max: 0.07 Gy/GBq
  Absorbed Dose, median: 0.01 Gy/GBq
  Absorbed Dose, min: 0.00 Gy/GBq
  Absorbed Dose in Cycle 1, Mean: 0.02 Gy/GBq
  Absorbed Dose in Cycle 1, max: 0.07 Gy/GBq
  Absorbed Dose in Cycle 1, min: 0.00 Gy/GBq
Testes
  Absorbed Dose, Mean: 0.01 Gy/GBq
  Absorbed Dose, max: 0.07 Gy/GBq
  Absorbed Dose, median: 0.01 Gy/GBq
  Absorbed Dose, min: 0.00 Gy/GBq
  Absorbed Dose in Cycle 1, Mean: 0.01 Gy/GBq
  Absorbed Dose in Cycle 1, max: 0.07 Gy/GBq
  Absorbed Dose in Cycle 1, min: 0.00 Gy/GBq
Thymus
  Absorbed Dose, Mean: 0.01 Gy/GBq
  Absorbed Dose, max: 0.07 Gy/GBq
  Absorbed Dose, median: 0.01 Gy/GBq
  Absorbed Dose, min: 0.00 Gy/GBq
  Absorbed Dose in Cycle 1, Mean: 0.01 Gy/GBq
  Absorbed Dose in Cycle 1, max: 0.07 Gy/GBq
  Absorbed Dose in Cycle 1, min: 0.00 Gy/GBq
Thyroid
  Absorbed Dose, Mean: 0.01 Gy/GBq
  Absorbed Dose, max: 0.07 Gy/GBq
  Absorbed Dose, median: 0.01 Gy/GBq
  Absorbed Dose, min: 0.00 Gy/GBq
  Absorbed Dose in Cycle 1, Mean: 0.01 Gy/GBq
  Absorbed Dose in Cycle 1, max: 0.07 Gy/GBq
  Absorbed Dose in Cycle 1, min: 0.00 Gy/GBq
Total Body
  Absorbed Dose, Mean: 0.02 Gy/GBq
  Absorbed Dose, max: 0.09 Gy/GBq
  Absorbed Dose, median: 0.02 Gy/GBq
  Absorbed Dose, min: 0.01 Gy/GBq
  Absorbed Dose in Cycle 1, Mean: 0.02 Gy/GBq
  Absorbed Dose in Cycle 1, max: 0.09 Gy/GBq
  Absorbed Dose in Cycle 1, min: 0.01 Gy/GBq
Urinary Bladder wall
  Absorbed Dose, Mean: 0.41 Gy/GBq
  Absorbed Dose, max: 0.50 Gy/GBq
  Absorbed Dose, median: 0.41 Gy/GBq
  Absorbed Dose, min: 0.33 Gy/GBq
  Absorbed Dose in Cycle 1, Mean: 0.40 Gy/GBq
  Absorbed Dose in Cycle 1, max: 0.47 Gy/GBq
  Absorbed Dose in Cycle 1, min: 0.33 Gy/GBq
Cycle 1, excluding six patients with unusually high marrow doses and the patient with a superscan
  mean red marrow absorbed dose, remaining 20 patients: 0.02±0.02 Gy/GBq
Cycle 1, image-based method (L2-L4), mean±SD, patient 42-030 excluded
  mean red marrow (bone marrow) absorbed radiation dose: 0.08±0.12 Gy/GBq
[1]
  absorbed radiation dose per gram of tissue, kidneys: 0.41±0.15 Gy/GBq
  absorbed radiation dose per gram of tissue, lacrimal glands: 0.40±0.36 Gy/GBq
  absorbed radiation dose per gram of tissue, left colon: 0.47±0.31 Gy/GBq
  absorbed radiation dose per gram of tissue, rectum: 0.44±0.30 Gy/GBq
  absorbed radiation dose per gram of tissue, urinary bladder: 0.41±0.05 Gy/GBq
Cycle 1, target 7.4±10% GBq, mean±SD, patients 42-030 and 12-004 excluded
  absorbed radiation dose per gram of tissue, salivary glands: 0.19±0.16 Gy/GBq
